Laboratory results published in PubChem BioAssay (NCI).
“And” between values parts separate entries of the source, which are not always exact repeats. Equal entries are not always repeated.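 Test compounds were applied to cells in 96-well plates for 48 hours at 5 doses. GI50 marks 50% less growth. TGI marks complete inhibition of growth.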

Columns and labels:
Assay in all cases: NCI tumour cell line growth inhibition, 48 h
UACC-257 melanoma = system: UACC-257 melanoma
786-0 renal = system: 786-0 renal
OVCAR-5 ovarian = system: OVCAR-5 ovarian
UACC-62 melanoma = system: UACC-62 melanoma
MDA-MB-435 = system: MDA-MB-435
A549 NSCLC = system: A549 NSCLC
SK-MEL-2 melanoma = system: SK-MEL-2 melanoma
MDA-MB-231 breast = system: MDA-MB-231 breast
SK-OV-3 ovarian = system: SK-OV-3 ovarian
DU-145 prostate = system: DU-145 prostate

Row | SMILES | GI50 (UACC-257 melanoma) | TGI (UACC-257 melanoma) | GI50 (786-0 renal) | TGI (786-0 renal) | GI50 (OVCAR-5 ovarian) | TGI (OVCAR-5 ovarian) | GI50 (UACC-62 melanoma) | TGI (UACC-62 melanoma) | GI50 (MDA-MB-435) | TGI (MDA-MB-435) | GI50 (A549 NSCLC) | TGI (A549 NSCLC) | GI50 (SK-MEL-2 melanoma) | TGI (SK-MEL-2 melanoma) | GI50 (MDA-MB-231 breast) | TGI (MDA-MB-231 breast) | GI50 (SK-OV-3 ovarian) | TGI (SK-OV-3 ovarian) | GI50 (DU-145 prostate) | TGI (DU-145 prostate)
1 | N#Cc1ccc(N2Cc3cc(Cl)ccc3OC3=C2C(=O)N(Cc2ccc(F)cc2)C3=O)cc1 | 0.556 µM | 1.15 µM | 0.578 µM | 1.27 µM | 0.737 µM | 1.93 µM | 0.537 µM | 1.13 µM | 0.607 µM | 1.44 µM | 7.34 µM | 23.2 µM | 0.314 µM | 0.867 µM | 0.636 µM | 1.51 µM | 16.2 µM | 55.7 µM | 0.662 µM | 1.45 µM
2 | Cc1cc(N2CCN(C)CC2)nc(N(CCNc2ccnc3cc(Cl)ccc23)Cc2ccco2)n1 | 2.07 µM | 4.25 µM | 1.93 µM | 4.83 µM | 5.89 µM | 19.4 µM | 2.02 µM | 4.01 µM | 1.62 µM | 3.39 µM | 4.1 µM | 14.6 µM | 2.26 µM | 5.58 µM | 2.46 µM | 7.84 µM | 10.4 µM | 22.1 µM | 5.94 µM | 19 µM
3 | O=C(O)CC1C(=O)OC2C3COC(=O)c4cc(O)c(O)c(O)c4-c4c(cc(O)c(O)c4O)C(=O)OC2C(OC(=O)c2cc(O)c(O)c4c2C1C(O)C(=O)O4)C(OC(=O)c1cc(O)c(O)c(O)c1)O3 (stereo not given) |  | > 100 µM |  | 56.5 µM |  | > 100 µM |  |  |  | 83 µM |  | > 100 µM |  | > 100 µM |  | 78.6 µM |  | > 100 µM |  | > 100 µM
4 | O=C(NC1CCNCC1)c1[nH]ncc1NC(=O)c1c(Cl)cccc1Cl | 1.42 µM and 1.92 µM | 4.56 µM and > 7.47 µM | 1 µM and 0.543 µM | > 100 µM | 0.348 µM and 0.282 µM | > 100 µM | 1.33 µM and 0.479 µM | 3.18 µM and 1.89 µM | 0.37 µM and 0.335 µM | 1.72 µM and 1.58 µM | 0.637 µM and 0.86 µM | > 100 µM | 0.216 µM and 0.303 µM | 0.519 µM and 1.14 µM | 0.312 µM and 0.276 µM | 2.07 µM and > 3.95 µM | 0.784 µM and 1.42 µM | > 100 µM | 0.417 µM and 0.472 µM | > 23.6 µM
5 | CCCCCCCCCCCCNC(=O)[C@H]1CSC(c2cc(Br)cs2)N1 (stereo not given in full) | 1.24 µM | 3 µM | 2.51 µM | 8.32 µM | 1.94 µM | 6.49 µM |  |  | 0.665 µM | 1.31 µM | 6.99 µM | 14.1 µM | 0.916 µM | 1.77 µM | 0.83 µM | 1.61 µM | 1.06 µM | 2.23 µM | 1.11 µM | 2.5 µM
6 | NC(Cc1ccc(O)cc1)C(=O)N/N=C/c1ccc(N(CCCl)CCCl)cc1 (stereo not given) | 15.6 µM | 98.5 µM | 5.98 µM | 75.9 µM | 27.4 µM | > 100 µM | 2.69 µM | 27 µM | 12.2 µM | 65.4 µM | 6.39 µM | > 100 µM | 60.6 µM | > 100 µM | 5.25 µM | 32.6 µM | 47.9 µM | > 100 µM | 5.19 µM | 34.7 µM
7 | O=C(N/N=C/c1ccncc1)c1ccc(C(F)(F)F)nc1Nc1cccc(C(F)(F)F)c1 | 3.78 µM | 10.6 µM | 1.29 µM | 7.55 µM | 2.83 µM | 14.8 µM | 2.57 µM | 8.54 µM | 3.66 µM | 13.7 µM | 3.12 µM | 10.9 µM |  |  | 1.81 µM | 9.43 µM | 2.13 µM | 6.67 µM | 2.59 µM | 6.83 µM
8 | CCOc1ccc(/C=N\N2C(=O)c3ccccc3C2=O)cc1 |  | > 100 µM |  | > 100 µM |  | > 100 µM |  | > 100 µM |  |  |  | > 100 µM |  | > 100 µM |  |  |  |  |  | 
9 | O=Cc1c[nH]c2ccc(-c3csc4ccccc34)cc12 | 13.2 µM | > 100 µM | 4.26 µM | 41.9 µM | 88.1 µM | > 100 µM | 3.02 µM | 34.6 µM | 1.24 µM | 3.66 µM | 4.29 µM | > 100 µM | 2.65 µM | > 100 µM | 6.28 µM | > 100 µM | 5.34 µM | > 100 µM | 3.18 µM | 22.2 µM
10 | COc1ccc(/C=C/c2ccnc3ccccc23)cc1 |  | 31.4 µM |  | 30.6 µM |  | 36.5 µM |  | 29.2 µM |  | 31.2 µM |  | 30.8 µM |  | 38.4 µM |  |  |  | 33.5 µM |  | 28 µM
11 | CCOC(=O)C/C(N)=C(\C#N)C(=O)OCC |  |  |  | > 100 µM |  | > 100 µM |  | > 100 µM |  |  |  | > 100 µM |  | > 100 µM |  |  |  | > 100 µM |  | 
12 | CN=c1ss/c(=N\C(=S)N(C)C)n1C1CCCCC1 |  | > 31.6 µM |  | > 10 µM |  | > 31.6 µM |  | > 31.6 µM |  |  |  | > 31.6 µM |  | > 31.6 µM |  |  |  | > 31.6 µM |  | 
13 | Cc1ccc(SC2C(C)(C)N(C(C)C)P2(=O)N(C(C)C)C(C)C)cc1 (stereo not given) |  | 67.5 µM |  | > 100 µM |  | > 100 µM |  | > 100 µM |  |  |  | > 70.8 µM |  | > 100 µM |  |  |  | > 100 µM |  | 
14 | C/C(=C\CCc1ccsc1)CC/C=C(\C)CCCN1CCN(CCO)CC1 | 4.57 µM | 16 µM | 2.27 µM | 5.35 µM | 4.04 µM | 17.6 µM | 1.73 µM | 3.75 µM | 2.84 µM | 8.66 µM | 3.05 µM | 13.3 µM |  |  | 1.6 µM | 4.18 µM | 7.58 µM | 21 µM | 6.96 µM | 19.6 µM
15 | COC(=O)CSc1n[nH]c(-c2ccccc2)n1 |  | > 100 µM |  | > 100 µM |  | > 100 µM |  | > 100 µM |  |  |  | > 100 µM |  | > 100 µM |  |  |  | > 100 µM |  | 
16 | CC(N)CN.CC(N)CN.[Cl-].[O]=[Os+2]=[O] (stereo not given) |  |  | 64.5 µM | > 100 µM | > 100 µM | > 100 µM | > 100 µM | > 100 µM |  |  | > 100 µM | > 100 µM | > 100 µM | > 100 µM |  |  |  |  |  | 
